Reference: patent US20090298878A1, “OXIME COMPOUNDS AND THE USE THEREOF” (priority 2006, published 2009)
Counter-ions that a name gives are not always drawn.

Experiments:
[1] = target: T1, N-type calcium channel (NTCC) (Homo sapiens, UniProt Q00975); experiment: FLIPR calcium mobilization assay for N-type calcium channel (differentiated IMR32 cells); assay type: cell-based; settings: calcium mobilization in vitro assay, N-type calcium channel blockers
T1 construct: host or cells: IMR32 cells differentiated with dibutyryl cAMP and bromodeoxyuridine
T1 sequence (Q00975 whole entry): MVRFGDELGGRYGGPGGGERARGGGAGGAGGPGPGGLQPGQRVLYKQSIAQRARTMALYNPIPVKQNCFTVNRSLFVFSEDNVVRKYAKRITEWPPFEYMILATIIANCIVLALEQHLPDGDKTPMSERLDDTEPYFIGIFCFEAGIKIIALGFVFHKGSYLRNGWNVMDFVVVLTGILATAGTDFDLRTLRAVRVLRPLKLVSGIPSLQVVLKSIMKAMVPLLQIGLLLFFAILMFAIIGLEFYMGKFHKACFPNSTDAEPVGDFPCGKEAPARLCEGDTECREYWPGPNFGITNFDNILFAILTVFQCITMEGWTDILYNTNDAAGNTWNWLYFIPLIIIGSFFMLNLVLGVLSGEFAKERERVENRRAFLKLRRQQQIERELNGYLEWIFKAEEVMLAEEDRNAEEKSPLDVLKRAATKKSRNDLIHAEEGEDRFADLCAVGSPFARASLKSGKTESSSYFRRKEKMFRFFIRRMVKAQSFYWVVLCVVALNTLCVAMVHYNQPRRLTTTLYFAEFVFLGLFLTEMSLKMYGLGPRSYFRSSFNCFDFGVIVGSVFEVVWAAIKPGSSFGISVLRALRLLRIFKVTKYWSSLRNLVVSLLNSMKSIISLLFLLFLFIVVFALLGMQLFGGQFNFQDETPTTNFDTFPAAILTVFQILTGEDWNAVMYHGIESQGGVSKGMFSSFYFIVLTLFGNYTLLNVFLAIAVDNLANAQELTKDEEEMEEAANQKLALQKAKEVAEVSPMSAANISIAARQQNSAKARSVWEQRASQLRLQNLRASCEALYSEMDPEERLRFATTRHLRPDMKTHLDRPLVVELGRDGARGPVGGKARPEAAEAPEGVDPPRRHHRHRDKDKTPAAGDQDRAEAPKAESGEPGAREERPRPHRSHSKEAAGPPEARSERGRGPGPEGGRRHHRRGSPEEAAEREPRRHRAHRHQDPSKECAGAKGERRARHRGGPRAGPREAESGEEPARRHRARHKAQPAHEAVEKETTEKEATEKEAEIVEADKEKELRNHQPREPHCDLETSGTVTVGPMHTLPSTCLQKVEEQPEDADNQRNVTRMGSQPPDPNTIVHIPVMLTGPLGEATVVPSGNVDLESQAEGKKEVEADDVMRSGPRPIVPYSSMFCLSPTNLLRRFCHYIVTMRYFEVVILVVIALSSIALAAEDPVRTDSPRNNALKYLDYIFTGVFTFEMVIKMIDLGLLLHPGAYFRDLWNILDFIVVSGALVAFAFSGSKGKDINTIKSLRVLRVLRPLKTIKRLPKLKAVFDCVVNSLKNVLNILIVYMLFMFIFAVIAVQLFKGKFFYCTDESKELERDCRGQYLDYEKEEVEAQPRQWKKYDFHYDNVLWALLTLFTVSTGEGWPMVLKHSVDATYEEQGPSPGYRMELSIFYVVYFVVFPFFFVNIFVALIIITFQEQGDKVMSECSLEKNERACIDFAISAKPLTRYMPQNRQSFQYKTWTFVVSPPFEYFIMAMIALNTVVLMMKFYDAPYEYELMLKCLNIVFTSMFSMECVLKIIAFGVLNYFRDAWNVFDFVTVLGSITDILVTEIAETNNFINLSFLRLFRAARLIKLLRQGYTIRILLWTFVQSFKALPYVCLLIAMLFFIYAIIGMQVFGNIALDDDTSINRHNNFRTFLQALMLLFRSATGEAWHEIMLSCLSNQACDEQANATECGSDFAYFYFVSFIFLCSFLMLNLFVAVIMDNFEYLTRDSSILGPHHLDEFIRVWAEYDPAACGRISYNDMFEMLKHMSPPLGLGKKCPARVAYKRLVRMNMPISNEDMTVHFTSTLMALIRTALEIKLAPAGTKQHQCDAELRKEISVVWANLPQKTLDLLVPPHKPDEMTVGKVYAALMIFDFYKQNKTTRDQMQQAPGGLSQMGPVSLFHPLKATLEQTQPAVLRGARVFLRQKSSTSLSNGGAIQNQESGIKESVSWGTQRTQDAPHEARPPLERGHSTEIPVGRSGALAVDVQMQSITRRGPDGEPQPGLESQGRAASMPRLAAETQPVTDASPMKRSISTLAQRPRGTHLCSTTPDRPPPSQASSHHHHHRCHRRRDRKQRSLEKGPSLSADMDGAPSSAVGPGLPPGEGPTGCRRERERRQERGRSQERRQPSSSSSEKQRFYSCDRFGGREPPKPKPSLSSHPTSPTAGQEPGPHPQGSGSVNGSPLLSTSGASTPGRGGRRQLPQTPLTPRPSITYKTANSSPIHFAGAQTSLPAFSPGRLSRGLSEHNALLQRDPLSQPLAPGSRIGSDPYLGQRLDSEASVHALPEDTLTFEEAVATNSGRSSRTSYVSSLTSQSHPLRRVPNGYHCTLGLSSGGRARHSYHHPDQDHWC
Procedure, shortened: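 Human IMR32 cells differentiated 8 days (1 mM dibutyryl cAMP, 2.5 μM BrdU), pre-stimulated 1 h with 90 mM KCl plus compound (~846 pM–17 μM) and 5 μM nitrendipine, Fluo-4 loaded. FLIPR read basal fluorescence 315 s, then 90 mM KCl agonist added and fluorescence recorded 45 s; non-linear regression.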

[2] = target: T2, L-type calcium channel (LTCC) subunits (α1c, α2δ, and β1) (Rattus norvegicus, UniProt P22002); experiment: FLIPR calcium mobilization assay for L-type calcium channel (HEK293 cells expressing recombinant rat LTCC subunits); assay type: cell-based; settings: calcium mobilization in vitro assay, L-type calcium channel blockers
T2 construct: expressed in transfected cells; pcDNA6.2DEST for α1c, pcDNA3.2DEST for β1, pcDNA3.1-Zeo for α2δ
T2 sequence (P22002 whole entry): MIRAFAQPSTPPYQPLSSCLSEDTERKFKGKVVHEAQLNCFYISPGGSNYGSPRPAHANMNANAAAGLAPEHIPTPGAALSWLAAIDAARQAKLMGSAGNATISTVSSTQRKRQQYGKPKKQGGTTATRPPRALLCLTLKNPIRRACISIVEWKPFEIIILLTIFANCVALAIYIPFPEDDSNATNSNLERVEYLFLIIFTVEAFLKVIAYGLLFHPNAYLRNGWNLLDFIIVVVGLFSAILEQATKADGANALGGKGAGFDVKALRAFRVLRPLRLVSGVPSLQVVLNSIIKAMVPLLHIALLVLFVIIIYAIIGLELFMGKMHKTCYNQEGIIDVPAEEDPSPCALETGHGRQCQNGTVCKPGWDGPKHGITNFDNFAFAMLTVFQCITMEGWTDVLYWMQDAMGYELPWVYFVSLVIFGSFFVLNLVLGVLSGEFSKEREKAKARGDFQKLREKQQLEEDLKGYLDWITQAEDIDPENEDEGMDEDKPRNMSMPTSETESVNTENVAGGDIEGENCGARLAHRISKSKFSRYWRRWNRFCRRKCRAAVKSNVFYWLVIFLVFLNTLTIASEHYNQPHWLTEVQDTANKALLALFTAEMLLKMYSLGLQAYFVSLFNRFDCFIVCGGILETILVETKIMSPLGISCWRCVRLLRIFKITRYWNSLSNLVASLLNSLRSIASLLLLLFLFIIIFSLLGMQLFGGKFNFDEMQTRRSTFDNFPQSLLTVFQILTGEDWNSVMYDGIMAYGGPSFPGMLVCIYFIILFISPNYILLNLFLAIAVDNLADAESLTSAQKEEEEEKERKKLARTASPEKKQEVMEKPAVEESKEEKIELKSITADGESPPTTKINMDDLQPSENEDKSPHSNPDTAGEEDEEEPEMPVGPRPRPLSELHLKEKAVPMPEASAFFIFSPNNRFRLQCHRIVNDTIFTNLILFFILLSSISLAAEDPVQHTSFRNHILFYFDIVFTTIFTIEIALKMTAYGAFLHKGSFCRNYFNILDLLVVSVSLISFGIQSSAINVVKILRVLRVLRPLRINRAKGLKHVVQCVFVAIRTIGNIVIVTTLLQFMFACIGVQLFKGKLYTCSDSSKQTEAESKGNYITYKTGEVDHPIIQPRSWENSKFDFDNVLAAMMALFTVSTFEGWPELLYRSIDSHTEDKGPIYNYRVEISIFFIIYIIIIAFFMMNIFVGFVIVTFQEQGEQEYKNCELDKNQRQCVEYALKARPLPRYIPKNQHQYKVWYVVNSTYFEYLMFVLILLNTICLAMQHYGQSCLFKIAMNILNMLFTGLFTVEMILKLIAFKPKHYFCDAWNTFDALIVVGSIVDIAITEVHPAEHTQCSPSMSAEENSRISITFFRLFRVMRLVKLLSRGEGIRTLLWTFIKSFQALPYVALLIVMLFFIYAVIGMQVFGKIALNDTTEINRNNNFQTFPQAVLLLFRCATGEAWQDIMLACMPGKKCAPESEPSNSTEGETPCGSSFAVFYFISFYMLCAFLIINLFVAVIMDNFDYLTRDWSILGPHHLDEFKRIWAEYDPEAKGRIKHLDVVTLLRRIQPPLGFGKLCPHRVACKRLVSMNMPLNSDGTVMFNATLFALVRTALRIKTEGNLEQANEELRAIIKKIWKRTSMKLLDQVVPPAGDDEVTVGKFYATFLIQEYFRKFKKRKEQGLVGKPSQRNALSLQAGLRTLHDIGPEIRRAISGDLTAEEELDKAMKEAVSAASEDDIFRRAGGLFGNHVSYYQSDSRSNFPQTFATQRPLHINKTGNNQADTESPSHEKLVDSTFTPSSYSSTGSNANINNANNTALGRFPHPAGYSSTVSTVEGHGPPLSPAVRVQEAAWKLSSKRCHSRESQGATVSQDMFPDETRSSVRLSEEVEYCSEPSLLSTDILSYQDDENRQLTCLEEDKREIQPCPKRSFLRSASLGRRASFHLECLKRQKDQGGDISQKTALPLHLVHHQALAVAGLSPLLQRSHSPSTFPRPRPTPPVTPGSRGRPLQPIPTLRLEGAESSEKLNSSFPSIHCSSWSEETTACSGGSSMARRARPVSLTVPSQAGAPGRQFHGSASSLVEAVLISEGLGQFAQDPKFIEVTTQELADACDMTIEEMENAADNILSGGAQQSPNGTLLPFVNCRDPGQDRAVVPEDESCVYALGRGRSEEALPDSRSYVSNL
Method: Recombinant human embryonal kidney cells (HEK293, ATCC) stably transfected with either N-type calcium channel (NTCC) subunits (α1b, α2δ, and β3) or L-type calcium channel (LTCC) subunits (α1c, α2δ, and β1) were routinely cultured in growth medium consisting of Dulbecco's Modified Eagles Medium containing 10% FBS, 100 U/mL penicillin, 100 μg/mL streptomycin, 4 mM L-glutamine, 500 μg/mL geneticin (G418), 20 μg/mL Blasticidin S (InVivogen, San Diego, Calif.) and 500 μg/mL zeocin (InVivogen).
FLIPR Calcium Mobilization Assay for L-type Calcium Channel. One day prior to performing this assay, HEK293 cells stably expressing recombinant rat L-type calcium channel (LTCC) subunits (α1c, α2δ, and β1) were trypsinized, then seeded on poly-D-lysine-coated 96-well clear-bottom black plates (Becton Dickinson, Franklin Lakes, N.J.) at 75,000 cells/well. On the day of the assay, the plates were washed with LTCC wash buffer (127 mM NaCl, 2 mM MgCl2, 700 μM NaH2PO4, […], 5 mM NaHCO3, 8 mM HEPES, 10 mM glucose, pH 7.4), then loaded with 0.1 mL of LTCC wash buffer containing Fluo-4 (3 μM final concentration, Molecular Probes, Eugene, Oreg.). After 1 hour, the cells were washed with 0.1 mL LTCC wash buffer and resuspended in 0.05 mL LTCC assay buffer (same composition as LTCC wash buffer). Plates were then transferred to a FLIPR^96 for assay. The FLIPR measured basal Fluo-4 fluorescence for 15 seconds, then added 0.05 mL of each compound tested diluted in LTCC assay buffer at final concentrations ranging from about 846 pM to about 17 μM. Fluo-4 fluorescence was then measured for 5 minutes. 0.1 mL KCl agonist dissolved in LTCC assay buffer was then added to the cells to produce a final concentration of 90 mM KCl, and fluorescence was measured for another 45 seconds. Data were collected over the entire time course and analyzed using Excel, Graph Pad Prism, or an in-house regression analysis software.
Cloning of N- and L-type calcium channel subunit open reading frame cDNAs. Five cDNAs encoding subunits of the rat N- or L-type calcium channels were cloned by PCR amplification in order to reconstitute functional channels in a heterologous system. These were the alpha1b (α1b), beta1 (β1), beta3 (β3), alpha2delta (α2δ), and alpha1c (α1c) subunit cDNAs. The alpha1b subunit cDNA has been described by Dubel et al. in Proc. Natl. Acad. Sci. U.S.A 89: 5058-5062 (1992). The beta1 subunit cDNA has been described by Pragnell et al. in FEBS Lett. 291: 253-258 (1991). The beta3 subunit cDNA has been described by Castellano et al. in J. Biol. Chem. 268: 12359-12366 (1993). The alpha2delta subunit cDNA has been described by Kim et al. in Proc. Natl. Acad. Sci. U.S.A. 89: 3251-3255 (1992). The alpha1c subunit cDNA has been described by Koch et al. in J. Biol. Chem. 265: 17786-17791 (1990).
The 6.5 kb cDNA encoding the L-type calcium channel α1c subunit was cloned by PCR amplification from rat heart cDNA using primers 11 (SEQ ID NO: 11, TABLE 1) and 12 (SEQ ID NO:12, TABLE 1). The PCR fragment was subcloned and fully sequenced on both strands to confirm its identity. A clone matching consensus reference sequence M59786 and rat genomic DNA sequences was recombined into the mammalian expression vector pcDNA6.2DEST. Sequences around the recombinogenic region were sequenced to confirm accurate recombination into the expression vector.
L-type Recombinant Cell Line Development. L-type calcium channel expressing HEK-293 cells were created in two stages. Stage 1 was created as follows. The rat α1c, and β1 cDNA expression constructs (2.5 μg each) were co-transfected into human embryonic kidney (HEK-293) cells by Lipofectamine Plus reagent (Invitrogen), as per manufacturer's instructions. 24 hours later, cells were split in limiting dilution into multiple 96-well plates in selection media containing 20 μg/mL blasticidin and 500 μg/mL geneticin, and incubated for 3 weeks at 37° C., 5% CO2, 95% humidity. […]

Row | Structure (SMILES) | IC50 [1] | IC50 [2]
1 | CN[C@@H](CC(C)C)C(=O)N1CCC(=NOCc2ccc(Cl)cc2)CC1 [Example 4, 1-((S)-4-Methyl-2-methylaminopentanoyl)piperidin-4-one O-(4-chlorobenzyl)oxime hydrochloride] | 860 nM | 15200 nM
2 | CC(C)C[C@H](N)C(=O)N1CCC(=NOCc2cccc(C(F)(F)F)c2)CC1 [Example 8, 1-((S)-2-Amino-4-methylpentanoyl)piperidin-4-one O-(3-trifluoromethylbenzyl)oxime hydrochloride] | 690 nM | 9600 nM
3 | Fc1ccc(C(CCCN2CCC(=NOCc3cccc(C(F)(F)F)c3)CC2)c2ccc(F)cc2)cc1 [Example 12, 1-[4,4-Bis-(4-fluorophenyl)butyl]piperidin-4-one O-(3-trifluoromethylbenzyl)oxime oxalate] | 820 nM | > 20000 nM
4 | O=C(CCC(c1ccc(F)cc1)c1ccc(F)cc1)N1CCC(=NOCc2ccncc2)CC1 [Example 19, 1-[4,4-Bis-(4-fluorophenyl)butyryl]piperidin-4-one O-pyridin-4-ylmethyloxime oxalate] | 760 nM | 4900 nM
5 | CC(C)C[C@H](N)CC(=O)N1CCC(=NOCc2cccc(C(F)(F)F)c2)CC1 [Example 24, 1-((S)-3-Amino-5-methylhexanoyl)piperidin-4-one O-(3-trifluoromethylbenzyl)oxime oxalate] | 990 nM | 7200 nM
6 | N#Cc1cc(CON=C2CCN(C(c3ccc(F)cc3)c3ccc(F)cc3)CC2)ccc1F [Example 182, 5-((1-(Bis(4-fluorophenyl)methyl)piperidin-4-ylideneaminooxy)methyl)-2-fluorobenzonitrile hydrochloride] | 690 nM | > 20000 nM
7 | O=S(=O)(c1cccc(C(F)(F)F)c1)N1CCC(=NOCC2CCCCC2)CC1 [Example 277, 1-(3-(Trifluoromethyl)phenylsulfonyl)piperidin-4-one O-cyclohexylmethyl oxime] | 610 nM | > 20000 nM

The next molecules have a lower IC50 [1] than those just listed; values first:

Row | IC50 [1] | IC50 [2] | Structure (SMILES)
8 | 430 nM | > 20000 nM | CCCCc1ccc(S(=O)(=O)N2CCC(=NOCc3cccc(C(F)(F)F)c3)CC2)cc1 [Example 50, 1-(4-Butyl-benzenesulfonyl)piperidin-4-one O-(3-trifluoromethylbenzyl)oxime]
9 | 360 nM | > 20000 nM | O=S(=O)(c1ccc(OC(F)(F)F)cc1)N1CCC(=NOCc2nc3cc(Cl)cnc3[nH]2)CC1 [Example 308, 1-(4-(Trifluoromethoxy)phenylsulfonyl)piperidin-4-one O-(6-chloro-3H-imidazo[4,5-b]pyridin-2-yl)methyl oxime]
10 | 330 nM | > 20000 nM | O=C(CCC(c1ccc(F)cc1)c1ccc(F)cc1)N1CCC(=NOCc2ccc(C(F)(F)F)cc2)CC1 [Example 30, 1-[4,4-Bis-(4-fluorophenyl)butyryl]piperidin-4-one O-(4-trifluoromethylbenzyl)oxime]
11 | 260 nM | 6600 nM | Fc1ccc(C(CCCN2CCC(=NOCc3cccnc3)CC2)c2ccc(F)cc2)cc1 [Example 16, 1-[4,4-Bis-(4-fluorophenyl)butyl]piperidin-4-one O-pyridin-3-ylmethyloxime dioxalate]
12 | 220 nM | > 20000 nM | CCCCc1ccc(S(=O)(=O)N2CCC(=NOCc3cccc(C#N)c3)CC2)cc1 [Example 77, 3-[1-(4-Butylbenzenesulfonyl)piperidin-4-ylideneaminooxymethyl]benzonitrile]
13 | 160 nM | > 20000 nM | O=c1ccc(CON=C2CCN(S(=O)(=O)c3ccc(OC(F)(F)F)cc3)CC2)cn1Cc1ccc(F)cc1 [Example 295, 1-(4-Fluorobenzyl)-5-((1-(4-(trifluoromethoxy)phenylsulfonyl)piperidin-4-ylideneaminooxy)methyl)pyridin-2(1H)-one]
14 | 80 nM | > 20000 nM | CCCCCC(C)ON=C1CCN(S(=O)(=O)c2cccc(C(F)(F)F)c2)CC1 (stereo not shown) [Example 369, 1-(3-(Trifluoromethyl)phenylsulfonyl)piperidin-4-one O-heptan-2-yl oxime]
